Assay results from patent US20240174621A1, “METHYLQUINAZOLINONE DERIVATIVES” (Hoffmann-La Roche Inc., priority 2019, published 2024).
Read-outs that look alike come from different tables or passages of the source. Blank lines part the entries; values can stand above or below the molecule they belong to.

Legend:
[1] = test system: P-ERK in A375 cells expressing V600E mutated BRAF; assay: cells; assay type: cell-based; conditions: Homo sapiens, A-375, 1 h, read-out: pERK IC50 (nM) A375
Source text: (§1) DMEM no-phenol red medium supplemented with L-glutamine was purchased from (Thermo Fisher Scientific). Fetal bovine serum (FBS) was purchased from VWR. Advanced ERK phospho-T202/Y204 kit—10,000 tests was purchased from Cisbio cat #64AERPEH. A375 and HCT116 cells were originally obtained from ATCC and banked by the Roche repository.
(§2) A375 is a cellular cancer model expressing V600E mutated BRAF and HCT116 a cellular cancer model expressing WT BRAF. […] ERK 1,2 phosphorylation (terminal member of the phosphorylation cascade of the MAPK pathway) is hereafter reported as main readout for the activation status of the MAPK pathway. Prior to the assay, A375 and HCT116 cell lines are maintained in DMEM no-phenol red medium supplemented with 10% fetal bovine serum (FBS). […] Briefly, 8000 cells/well in 12 μl media/well are plated in the 384-well plate and left overnight in the incubator (at 37° C. with 5% CO2-humidified atmosphere), the following day the plate is treated in duplicate with test compounds, dabrafenib and PLX8394 (the latter two as controls) at the following final drug concentrations: 10 μM-3 μM-1 μM all wells are subjected to DMSO normalization and drug incubation occurs for 1 hour. Then, 4 μl of a 4× lysis buffer supplied with the kit are added to the wells, the plate is then centrifuged for 30 second (300 rcf) and incubated on a plate shaker for 1 h at RT.
At the end of the incubation 4 μL/well of advanced P-ERK antibody solution (prepared according to manufacturer's instruction) followed by 4 μL/well of criptate P-ERK antibody solution (prepared according to manufacturer's instruction) (Cisbio cat #64AERPEH) are added to test wells. […]
(§3) The obtained fluorescence values are processed according to the formula Ratio=[…]*10000 then the average of the ratio on the blank is subtracted to all values.
Mean of the normalized points are fitted with sigmoidal curve and IC50 determined.

[2] = test system: P-ERK in HCT116 cells expressing WT BRAF; assay type: cell-based
Source text: as §1, with “repository. 384-well microplates were purchased from Greiner Bio-One, 384-well, (With Lid, HiBase, Low volume cat 784-080).” for “repository.”
as §2
At the end of the incubation 4 μL/well of advanced P-ERK antibody solution (prepared according to manufacturer's instruction) followed by 4 μL/well of criptate P-ERK antibody solution (prepared according to manufacturer's instruction) (Cisbio cat #64AERPEH) are added to test wells.
In order to allow proper data normalization control wells non drug treated reported in the following table are always included in each plate (according to manufacturer's instruction):
The plate is then centrifuged at 300 rcf for 30 second, sealed to prevent evaporation and incubated overnight in the dark at room temperature.
The plate is then analyzed and fluorescence emission value collected through a Pherastast FSX (BMG Labtech) apparatus at […].
as §3
Data are normalized in the case of HCT116 cells (BRAF activation,) considering the average of the ratio (blank subtracted) derived by DMSO only treated cells as 0% and by considering the average of the ratio (blank subtracted) derived by dabrafenib treated cells at the concentration which provides the highest signal as 100%. Individual points are fitted with either sigmoidal or bell shape curves, and the percentage of activation compared to maximum dabrafenib-mediated activation is determined. The EC50 is the concentration at which activation equal to 50% of the maximum achieved by dabrafenib is obtained.
The Percentage of Maximum paradox inducing effect from dabrafenib is determined by evaluating the percentage at which the test compound induce its maximum P-ERK signal as percentage of the highest signal produced by dabrafenib within the dose range tested.

[3] = literature; cited from earlier work
[4] = test system: P-gp; assay: P-gp apical efflux ratio, LLC-PK1 cell line transfected with MDR1; assay type: in vitro ADME
[5] = Plasma protein binding; assay type: in vitro ADME; conditions: mouse, rat, minipig, monkey, human
[6] = CSF Kp,uu measurement for brain penetration, mouse; assay type: in vivo; conditions: Single oral dose 10 mg/kg
Protocol: (§4) The CSF Kp,uu is the ratio of the concentration in cerebrospinal fluid (CSF): unbound plasma exposure and Kp,uu values≥1 indicate good brain penetration. For compound Example 1, single oral dose studies in mouse and rat, sequential plasma and CSF concentrations (up to 24 h post dose) were measured by LC-MS/MS to calculate the CSF Kp,uu. For multiple oral dose studies in rat and minipig the plasma and CSF concentrations approximating Tmax (3 h post last dose) were measured by LC-MS/MS and used to calculate the CSF Kp,uu.

[7] = CSF Kp,uu measurement for brain penetration, rat; assay type: in vivo
Protocol: as §4

[8] = CSF Kp,uu measurement for brain penetration, minipig; assay type: in vivo; conditions: Multiple oral dosing @ 300 mg/kg/day (2-week DRF)
Protocol: as §4

[9] = test system: A375 BRAF V600E cancer cells constituvely expressing luciferase; assay: Intracranial implanted A375-Luc; assay type: in vivo; conditions: daily oral 1, 5 and 20 mg/kg for 2 weeks from day 7; immunocompromised mice
Protocol: A375 BRAF V600E cancer cells constituvely expressing luciferase were injected intracranially in immunocompromised mice. Treatment with compound Example 1 was initiated at day 7 from the intracranial injection and continued for 2 weeks. The different groups were subject to daily oral administration of 1 mg/kg, 5 mg/kg and 20 mg/kg of Example 1 respectively.

[10] = BCS (biopharmaceutics classification system); assay type: physicochemical
[11] = read-out: p-ERK EC50 (nM) conc. (nM) at which the compound induces P-ERK activation of 50% of that induced by dabrafenib (Positive control paradox inducer) HCT-116; HCT-116 cells; not applicable if activation does not reach 50% of dabrafenib maximum
[12] = HCT-116 cells; maximum P-ERK signal as percentage of highest dabrafenib signal

SMILES: CCCS(=O)(=O)Nc1ccc(F)c(Oc2ccc3ncn(C)c(=O)c3c2)c1C#N [AR-25]
- IC50 [1]: 1.1 nM
- EC50 [2, 11]: 9.6 nM

- IC50 [1]: 406 nM
- EC50 [2, 11]: > 1000 nM
SMILES: CN(C)S(=O)(=O)Nc1ccc(Cl)c(Oc2ccc3ncn(C)c(=O)c3c2)c1C#N [AR-30]
- Percentage of Maximum paradox inducing effect from dabrafenib [2, 12]: 59%

- IC50 [1]: 311 nM
- EC50 ([2]; HCT-116 cells; not applicable if activation does not reach 50% of dabrafenib maximum; read-out: p-ERK EC50 (nM) conc. (nM) at which the compound induces P-ERK activation of 50% of that induced by dabrafenib (Positive control paradox inducer) HCT-116): > 1000 nM
SMILES: Cn1cnc2ccc(Oc3c(Cl)ccc(NS(=O)(=O)N4CCCC4)c3C#N)cc2c1=O [AR-31]
- Percentage of Maximum paradox inducing effect from dabrafenib [2, 12]: 51.2%

SMILES: CC(C)(C)c1nc(-c2cccc(NS(=O)(=O)c3c(F)cccc3F)c2F)c(-c2ccnc(N)n2)s1 [Dabrafenib]
- Brain permeability [3]: very poor brain permerability

SMILES: COC(=O)N[C@@H](C)CNc1nccc(-c2cn(C(C)C)nc2-c2cc(Cl)cc(NS(C)(=O)=O)c2F)n1 [Encorafenib]
- Brain permeability [3]: very poor brain permerability

- P-gp Apical Efflux ratio, Class ([4]; LLC-PK1 transfected with MDR1): Low
- efflux ratio ([4]; human, LLC-PK1 transfected with MDR1, presence/absence of P-gp inhibitor): 1.5
- Plasma protein binding, Class [5]: Very high
- fraction unbound ([5]; plasma): ≤ 0.01
- Mouse CSF Kp,uu, Class [6]: High
- Kp uu ([6]; mouse, CSF / unbound plasma): ≥ 1
- Rat CSF Kp,uu, Class ([7]; Multiple oral dosing @ 300 mg/kg/day (2-week DRF)): High
- Rat CSF Kp,uu, Class ([7]; Single oral dose 20 mg/kg): High
- Kp uu at 3 h ([7]; rat, CSF / unbound plasma, Multiple oral dosing @ 300 mg/kg/day (2-week DRF), 3 h post last dose): ≥ 1
- Kp uu ([7]; rat, CSF / unbound plasma, Single oral dose 20 mg/kg): ≥ 1
- Minipig CSF Kp,uu, Class [8]: High
- Kp uu at 3 h ([8]; minipig, CSF / unbound plasma, 3 h post last dose): ≥ 1
- BCS (biopharmaceutics classific. system) Class [10]: 2
SMILES: Cn1cnc2ccc(Oc3c(F)ccc(NS(=O)(=O)N4CC[C@@H](F)C4)c3C#N)cc2c1=O [Example 1, (3R)-N-[2-cyano-4-fluoro-3-(3-methyl-4-oxo-quinazolin-6-yl)oxy-phenyl]-3-fluoro-pyrrolidine-1-sulfonamide]
- Temporal relationship of plasma and CSF (distribution into CSF) ([7]; single dose rat PK study, up to 24 h post dose): (PK) study and indicated fast and extensive distribution into CSF.
- Antitumor activity, intracranial A375-Luc [9]: dose dependent antitumor activity

SMILES: Cn1cnc2ccc(Oc3c(F)ccc(NS(=O)(=O)N4CC[C@H](F)C4)c3C#N)cc2c1=O [Example 2, (3S)-N-[2-cyano-4-fluoro-3-(3-methyl-4-oxo-quinazolin-6-yl)oxy-phenyl]-3-fluoro-pyrrolidine-1-sulfonamide]
- Percentage of Maximum paradox inducing effect from dabrafenib [2, 12]: 46.2%

SMILES: CCCS(=O)(=O)Nc1ccc(F)c(C(=O)c2c[nH]c3ncc(-c4ccc(Cl)cc4)cc23)c1F [Vemurafenib]
- Brain permeability [3]: very poor brain permerability
